Measured values as given in patent US10947202B2, “Sodium ion channel inhibitors and pharmaceutically acceptable salts and polymorphs thereof and uses thereof” (SHANGHAI HAIYAN PHARMACEUTICAL TECHNOLOGY CO., LTD., priority 2017, dated 2021).
Where two headings read alike, the source gives them in different places.

Columns and labels:
Nav1.2 = Nav1.2 (Homo sapiens, UniProt Q99250); assay: Selectivity for other ion channels: Nav1.2; assay type: cell-based
[1] = Metabolism stability test in liver microsomes; assay type: in vitro ADME; conditions: human liver microsomes
Method: Buffer A: 1 L solution of 100 mM potassium dihydrogen phosphate containing 1 mM EDTA (Sigma, V900157-100G) was prepared.
Buffer B: 1 L solution of 100 mM dipotassium hydrogen phosphate containing 1 mM EDTA was prepared.
Buffer C: 700 mL of buffer B was taken out and titrated with buffer A to pH 7.4.
2.1 10 μl of 10 mM compound to be tested and 10 μl of 10 mM ketanserin were taken out and 190 μl of pure acetonitrile was added to each of them to prepare 500 μM compound to be tested and ketanserin, respectively.
2.2 20 μl (20 mg/mL) of liver microsomes (Corning Lot. NO. 4133007) stock solution was added to 513.4 μl of buffer C on wet ice. 0.75 mg/mL liver microsomal solution was obtained.
2.3 1.5 μl of each of the above-mentioned compound to be tested and ketanserin solution was added to 498.5 μl of liver microsomal solution (0.7 5 mg/mL) respectively on wet ice. 1.5 μM mixed solution of compound to be tested and 1.5 μM mixed solution of ketanserin were obtained.
2.4 At the time points 0, 5, 15, 30, 45, and 60 min, 30 μl of the mixed solution of compound to be tested and 30 μl of the mixed solution of ketanserin were dispensed into the reaction plate on wet ice, respectively.
2.5 5 mg reduced coenzyme II (Roche, 10621706001) was weighed and dissolved in 1 mL of buffer C. 6 mM reduced coenzyme II solution was obtained. The reduced coenzyme II solution was dispensed into the reaction plate.
2.6 Imipramine was dissolved to give a 10 mM solution. 10 μl imipramine solution was added to 100 mL of blank acetonitrile to generate the internal reference.
2.7 At 0 min, 135 μL of iced acetonitrile (Merck (Lot. 1778229518)) containing the internal reference was added to each well and then 15 μL of buffer C was added.
2.8 The reaction plate was placed into a 37° C. water bath incubator for 5 min. In the reaction plate, 15 μL of reduced coenzyme II solution was added to each well to initiate the reaction, and the time keeping was started. At the time points of 5, 15, 30, 45, and 60 min, 135 μL of iced acetonitrile containing the internal reference was added to each well to terminate the reaction.
2.9 The reaction plate was sealed with an aluminum film, placed on a vibration mixer and shaken at 500 rpm for 5 min. The plate was then centrifuged in a centrifuge at 3750 rp for 15 min.
2.10 The sample was diluted with pure water in accordance with the ratio of 1:1 and detected by LC/MS. […]
Wherein, the K value and the proportional factor were calculated by those skilled in the art according to the methods described in the prior art and contained in the instructions of the liver microsome product.

Nav1.8 = Nav1.8 (Homo sapiens, UniProt Q9Y5Y9); assay: Selectivity for other ion channels: Nav1.8; assay type: cell-based
Solubility experiment = assay type: physicochemical; conditions: listed as free base sample
Method: The solubility of crystal forms A, D, E-1, E-3, F and free base sample in buffer of 0.1M HCl, pH 4.5, pH 6.8 and water was tested at room temperature. In the test, the standard curves of free base sample and five crystal forms were plotted. Subsequently, 6 mg of API and five crystal form samples were weighed, respectively, and 2 ml of the solvent was added, the mixture was shaken at room temperature for 4 h, then ultrasonicated for 30 min, centrifuged, and the supernatant was taken out, filtered through a 0.45 μm filter and injected, and the solubility was measured, the results are shown in Table 28 (concentration is in mg/ml).

[2] = target: T1, hERG potassium ion channel (Homo sapiens, UniProt Q12809); assay: Effect on the hERG potassium ion channel (CHO hERG cells, manual patch clamp); assay type: cell-based
T1 construct: host or cells: CHO (CHO hERG, passage P15)
Method: 2.1.1 Cells used in this experiment are CHO cell lines (supplied by Sophion Bioscience, Denmark) which are hERG cDNA transfectant and stably express hERG channels, cell progeny is P15. Cells are cultured in medium containing the following ingredients Invitrogen): Ham's F12 medium, 10% (v/v) inactivated fetal bovine serum, […] hygromycin B, […] Geneticin.
2.1.2 CHO hERG cells were grown in Petri dishes containing the above medium and cultured in an incubator containing 5% CO2 at 37° C. CHO hERG cells were transferred onto round glass plates in Petri dishes, and grown on the same culture medium and culture conditions as above 24 h to 48 h prior to the electrophysiological experiments, and the density of CHO hERG cells on each round glass plate needs to meet the requirements that the vast majority of cells are independent and individual.
The following solutions (supplied by Sophion) were used for electrophysiological recording. The reagents used in this test were provided by Sigma.
In this experiment, whole-cell current recording was performed using a manual patch clamp system (HEKA EPC-10 signal amplification and digital conversion system, purchased from HEKA Electronic, Germany). The round glass slide of which surface CHO hERG cells were grown on was placed in an electrophysiological recording slot under an inverted microscope. Perfused steadily with extracellular fluid in recording slot (approximately 1 ml per minute). A conventional whole-cell patch clamp current recording technique was used in the experiment. Unless otherwise specified, experiments were performed at normal room temperature (about 25° C.). Cell clamping was at −80 mV. […] The hERG potassium current recorded in the above steps could be superfused for test drug after the steady perfusion state of the extracellular fluid in the recording slot had been stabilized until the inhibition of the hERG current by the drug reached a steady state. […]
The test data were analyzed by the data analysis software provided by HEKA Patchmaster (V2x73.2), Microsoft Excel and Graphpad Prism 5.0.

T1 sequence (Q12809 whole entry): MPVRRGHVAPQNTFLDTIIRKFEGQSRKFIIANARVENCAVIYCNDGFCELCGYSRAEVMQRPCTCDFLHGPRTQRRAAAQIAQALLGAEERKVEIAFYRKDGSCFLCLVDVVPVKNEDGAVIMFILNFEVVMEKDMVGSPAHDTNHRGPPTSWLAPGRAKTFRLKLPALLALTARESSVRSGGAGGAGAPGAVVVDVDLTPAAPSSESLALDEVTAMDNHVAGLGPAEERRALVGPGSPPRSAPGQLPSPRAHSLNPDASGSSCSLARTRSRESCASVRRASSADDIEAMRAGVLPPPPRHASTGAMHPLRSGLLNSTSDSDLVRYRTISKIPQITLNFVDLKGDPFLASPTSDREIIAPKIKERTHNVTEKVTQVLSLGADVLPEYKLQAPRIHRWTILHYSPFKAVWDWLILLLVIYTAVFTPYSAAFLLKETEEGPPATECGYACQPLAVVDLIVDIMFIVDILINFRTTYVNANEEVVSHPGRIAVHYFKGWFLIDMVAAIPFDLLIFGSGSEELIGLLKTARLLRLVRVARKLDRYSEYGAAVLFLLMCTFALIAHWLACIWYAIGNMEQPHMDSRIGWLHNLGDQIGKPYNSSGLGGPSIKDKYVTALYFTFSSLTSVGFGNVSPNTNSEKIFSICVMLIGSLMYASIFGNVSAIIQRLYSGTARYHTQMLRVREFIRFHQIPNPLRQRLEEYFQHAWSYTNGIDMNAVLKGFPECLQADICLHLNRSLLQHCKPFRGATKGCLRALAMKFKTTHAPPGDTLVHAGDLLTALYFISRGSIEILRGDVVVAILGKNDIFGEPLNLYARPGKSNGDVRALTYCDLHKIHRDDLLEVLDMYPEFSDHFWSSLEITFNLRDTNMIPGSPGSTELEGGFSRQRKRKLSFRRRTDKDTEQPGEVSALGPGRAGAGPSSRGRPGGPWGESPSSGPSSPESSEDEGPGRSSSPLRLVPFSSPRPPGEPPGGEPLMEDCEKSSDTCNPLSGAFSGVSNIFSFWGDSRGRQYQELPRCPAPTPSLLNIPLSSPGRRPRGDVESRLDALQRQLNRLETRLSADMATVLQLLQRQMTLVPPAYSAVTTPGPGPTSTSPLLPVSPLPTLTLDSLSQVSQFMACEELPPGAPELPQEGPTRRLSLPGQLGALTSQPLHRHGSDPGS
Nav1.8, sequence (Q9Y5Y9 whole entry): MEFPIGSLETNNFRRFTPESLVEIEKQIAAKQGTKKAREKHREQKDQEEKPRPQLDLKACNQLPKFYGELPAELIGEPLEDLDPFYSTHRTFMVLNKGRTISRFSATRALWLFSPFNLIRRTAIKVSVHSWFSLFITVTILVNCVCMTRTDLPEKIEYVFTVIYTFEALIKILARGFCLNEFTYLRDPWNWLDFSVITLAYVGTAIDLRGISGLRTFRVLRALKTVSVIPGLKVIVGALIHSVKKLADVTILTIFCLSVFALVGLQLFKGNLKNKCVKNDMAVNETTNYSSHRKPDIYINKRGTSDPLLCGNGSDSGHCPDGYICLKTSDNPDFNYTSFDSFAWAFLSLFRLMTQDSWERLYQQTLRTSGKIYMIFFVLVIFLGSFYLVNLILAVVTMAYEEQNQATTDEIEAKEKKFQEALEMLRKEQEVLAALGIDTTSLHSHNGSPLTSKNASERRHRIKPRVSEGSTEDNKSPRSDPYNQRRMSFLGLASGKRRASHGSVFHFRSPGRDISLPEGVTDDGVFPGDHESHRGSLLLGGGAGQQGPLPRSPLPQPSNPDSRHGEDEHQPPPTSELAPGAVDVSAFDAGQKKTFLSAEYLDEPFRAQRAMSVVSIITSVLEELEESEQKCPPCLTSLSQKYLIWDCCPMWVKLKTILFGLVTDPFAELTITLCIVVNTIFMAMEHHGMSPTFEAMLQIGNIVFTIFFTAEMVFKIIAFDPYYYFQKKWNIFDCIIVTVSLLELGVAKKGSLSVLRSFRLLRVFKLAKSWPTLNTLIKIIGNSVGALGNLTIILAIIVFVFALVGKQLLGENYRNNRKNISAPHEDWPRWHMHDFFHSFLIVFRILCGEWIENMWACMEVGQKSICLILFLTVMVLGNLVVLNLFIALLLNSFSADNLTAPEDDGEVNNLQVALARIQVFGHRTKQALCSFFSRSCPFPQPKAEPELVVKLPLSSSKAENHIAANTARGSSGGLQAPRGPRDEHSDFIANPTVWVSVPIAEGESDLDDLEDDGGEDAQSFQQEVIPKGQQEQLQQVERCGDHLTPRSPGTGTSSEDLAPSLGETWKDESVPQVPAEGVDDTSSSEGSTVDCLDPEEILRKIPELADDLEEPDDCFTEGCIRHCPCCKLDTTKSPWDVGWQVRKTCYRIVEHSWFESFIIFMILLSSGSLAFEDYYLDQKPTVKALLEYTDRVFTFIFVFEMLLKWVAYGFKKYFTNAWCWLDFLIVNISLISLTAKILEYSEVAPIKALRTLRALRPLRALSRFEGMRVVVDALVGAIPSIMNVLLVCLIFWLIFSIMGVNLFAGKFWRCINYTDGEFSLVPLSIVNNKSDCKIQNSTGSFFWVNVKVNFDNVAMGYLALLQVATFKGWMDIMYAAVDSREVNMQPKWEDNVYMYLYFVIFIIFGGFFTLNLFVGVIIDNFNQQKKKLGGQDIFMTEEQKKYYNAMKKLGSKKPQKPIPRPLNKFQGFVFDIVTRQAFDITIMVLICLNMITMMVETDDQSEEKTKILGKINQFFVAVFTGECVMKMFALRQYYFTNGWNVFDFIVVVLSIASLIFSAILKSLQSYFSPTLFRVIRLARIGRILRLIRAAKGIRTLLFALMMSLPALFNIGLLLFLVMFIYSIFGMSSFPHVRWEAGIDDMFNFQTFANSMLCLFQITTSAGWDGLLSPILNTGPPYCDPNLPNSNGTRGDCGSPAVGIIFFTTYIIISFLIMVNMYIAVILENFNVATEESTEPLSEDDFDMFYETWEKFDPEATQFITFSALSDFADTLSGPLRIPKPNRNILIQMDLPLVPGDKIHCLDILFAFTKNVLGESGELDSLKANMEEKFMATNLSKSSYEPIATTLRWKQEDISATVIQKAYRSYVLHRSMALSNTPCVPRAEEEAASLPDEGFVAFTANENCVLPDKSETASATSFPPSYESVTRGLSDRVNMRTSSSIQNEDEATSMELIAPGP
Nav1.2, sequence (Q99250 whole entry): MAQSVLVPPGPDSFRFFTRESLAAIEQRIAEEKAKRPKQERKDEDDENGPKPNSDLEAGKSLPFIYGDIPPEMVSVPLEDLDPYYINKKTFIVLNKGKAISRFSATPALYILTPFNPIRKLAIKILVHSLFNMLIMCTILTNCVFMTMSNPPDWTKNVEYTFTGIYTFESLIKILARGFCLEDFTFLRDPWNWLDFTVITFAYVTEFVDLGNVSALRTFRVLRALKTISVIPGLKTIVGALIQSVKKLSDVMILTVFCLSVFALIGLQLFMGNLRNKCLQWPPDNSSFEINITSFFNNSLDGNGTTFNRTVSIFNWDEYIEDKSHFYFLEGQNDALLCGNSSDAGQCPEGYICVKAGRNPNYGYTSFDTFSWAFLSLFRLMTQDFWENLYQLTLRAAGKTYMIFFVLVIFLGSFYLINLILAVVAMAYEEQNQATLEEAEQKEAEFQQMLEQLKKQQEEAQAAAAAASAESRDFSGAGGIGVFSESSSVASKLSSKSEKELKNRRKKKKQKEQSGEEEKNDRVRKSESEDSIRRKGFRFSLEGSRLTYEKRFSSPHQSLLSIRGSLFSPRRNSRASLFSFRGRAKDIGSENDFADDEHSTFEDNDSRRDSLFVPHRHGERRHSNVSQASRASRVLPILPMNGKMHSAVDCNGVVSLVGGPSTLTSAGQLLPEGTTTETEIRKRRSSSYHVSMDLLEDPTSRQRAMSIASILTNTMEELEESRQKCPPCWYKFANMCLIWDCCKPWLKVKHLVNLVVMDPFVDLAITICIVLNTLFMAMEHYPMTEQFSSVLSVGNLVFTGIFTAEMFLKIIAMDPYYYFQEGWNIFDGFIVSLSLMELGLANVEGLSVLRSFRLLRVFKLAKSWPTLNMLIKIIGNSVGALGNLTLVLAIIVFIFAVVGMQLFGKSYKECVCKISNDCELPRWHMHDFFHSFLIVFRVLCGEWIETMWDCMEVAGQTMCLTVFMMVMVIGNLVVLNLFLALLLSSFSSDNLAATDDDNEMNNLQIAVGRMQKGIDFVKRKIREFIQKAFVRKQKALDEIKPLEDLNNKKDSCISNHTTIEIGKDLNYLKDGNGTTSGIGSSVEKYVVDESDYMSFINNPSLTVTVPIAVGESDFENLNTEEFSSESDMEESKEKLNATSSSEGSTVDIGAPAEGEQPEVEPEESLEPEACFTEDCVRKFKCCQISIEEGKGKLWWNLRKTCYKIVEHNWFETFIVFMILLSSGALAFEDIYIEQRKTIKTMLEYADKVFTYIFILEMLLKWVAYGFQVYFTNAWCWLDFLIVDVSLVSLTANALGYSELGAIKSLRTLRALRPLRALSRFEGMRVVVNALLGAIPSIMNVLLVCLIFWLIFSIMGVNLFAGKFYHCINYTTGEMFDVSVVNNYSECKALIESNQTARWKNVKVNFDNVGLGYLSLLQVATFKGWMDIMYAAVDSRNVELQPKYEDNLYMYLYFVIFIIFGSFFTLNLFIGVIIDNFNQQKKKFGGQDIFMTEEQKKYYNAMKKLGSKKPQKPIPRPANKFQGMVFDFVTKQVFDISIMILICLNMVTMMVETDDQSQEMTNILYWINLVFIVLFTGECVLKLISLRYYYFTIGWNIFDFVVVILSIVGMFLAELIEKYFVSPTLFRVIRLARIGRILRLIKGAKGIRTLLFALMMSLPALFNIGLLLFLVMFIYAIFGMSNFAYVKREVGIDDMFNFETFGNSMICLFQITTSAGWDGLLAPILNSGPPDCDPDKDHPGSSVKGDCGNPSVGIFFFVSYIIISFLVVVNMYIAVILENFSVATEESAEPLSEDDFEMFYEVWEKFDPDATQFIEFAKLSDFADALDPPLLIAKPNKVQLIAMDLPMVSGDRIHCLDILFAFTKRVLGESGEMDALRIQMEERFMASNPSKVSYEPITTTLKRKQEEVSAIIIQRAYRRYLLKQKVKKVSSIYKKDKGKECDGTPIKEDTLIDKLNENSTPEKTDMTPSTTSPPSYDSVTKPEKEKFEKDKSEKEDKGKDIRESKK

## Cc1cc(N2CCN(Cc3cc(F)c(C(=O)NS(=O)(=O)C4CC4)cc3Cl)CC2)ccc1Cl [the free base of formula X compound, 5-chloro-4-((4-(4-chloro-3-methylphenyl)piperazin-1-yl)methyl)-N-(cyclopropylsulfonyl)-2-fluorobenzamide]
Nav1.2
  IC50: 9600 nM
[1]
  Clearance ratio: 20.12 mL/min/kg
  metabolic stability: good metabolic stability
Nav1.8
  IC50: 18900 nM
Solubility experiment; 0.1M HCl, room temperature
  Solubility (mg/mL) 0.1M HCl: 0.065 mg/mL
Solubility experiment; buffer pH 4.5, room temperature
  Solubility (mg/mL) pH4.5: 0.001 mg/mL
Solubility experiment; buffer pH 6.8, room temperature
  Solubility (mg/mL) pH6.8: 0.021 mg/mL
Solubility experiment; water, room temperature
  Solubility (mg/mL) H2O: 0.027 mg/mL
[2]
  inhibitory activity on the hERG potassium ion channel: little inhibitory activity
[2]; read-out: hERG inhibitory concentration IC50
  IC50: > 10000 nM
[2]; read-out: hERG potassium ion channel (IC50/nM)
  IC50: > 10000 nM
